From patent US11077090B2, “Compounds and compositions and uses thereof” (Sunovion Pharmaceuticals Inc., priority 2016, dated 2021) come the findings set out here.

The test system of the test is compound-treated mice. The test can be described thus: Neuropharmacological assay (SmartCube): behavioral activity signature and minimal effective dose. It counts as in vivo. The note with it: for minimal effective dose: Mus musculus, ip, MED = dose having 50% or more total activity, read-out: Potency: minimal effective dose (MED); for AD: ADHD (probability of activity signature) / AG: analgesic (probability of activity signature) / AX: anxiolytic (probability of activity signature) / CE: cognitive enhancer (probability of activity signature) / DP: anti-depressant (probability of activity signature) / MS: mood stabilizer (probability of activity signature) / PS: anti-psychotic (probability of activity signature) / SD: sedative hypnotic (probability of activity signature) / UN: uncharacterized CNS activity (probability of activity signature): i.p. 15 min before test, most efficacious dose(s). An outline of the steps:
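Mice dosed i.p. 15 min before test, compound in N-methyl-2-pyrrolidone/PEG/propylene glycol, 3 doses; video-captured behavior matched to reference-drug signatures, giving per-class probabilities at most efficacious dose. MED from doses typically 0.3–30 mpk, defined as lowest dose with ≥50% total activity.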

On to `Cc1cccc2c1[C@H](N)[C@H](C)OC2.Cl` [Example 82], for which the minimal effective dose was less than 3 mg/kg, the “AD: ADHD (probability of activity signature)” value (“AD: ADHD” for short) is “+ (LOQ ≤ + <5%)”, the “AG: analgesic (probability of activity signature)” value (shortened to “AG: analgesic”) is recorded as “++ (5% ≤ ++ <25%)” and the “AX: anxiolytic (probability of activity signature)” value (“AX: anxiolytic” for short) is “+++ (25% ≤ +++ <50%)”. Besides, the “CE: cognitive enhancer (probability of activity signature)” value (“CE: cognitive enhancer” for short) was “++ (5% ≤ ++ <25%)”, the “DP: anti-depressant (probability of activity signature)” value (“DP: anti-depressant” for short) is on record as “++ (5% ≤ ++ <25%)”, the “MS: mood stabilizer (probability of activity signature)” value (from here on “MS: mood stabilizer”) is given as “+ (LOQ ≤ + <5%)” and the “PS: anti-psychotic (probability of activity signature)” value (from here on “PS: anti-psychotic”) is “++ (5% ≤ ++ <25%)”. Besides, the “SD: sedative hypnotic (probability of activity signature)” value (“SD: sedative hypnotic” for short) is listed as “++ (5% ≤ ++ <25%)” and the “UN: uncharacterized CNS activity (probability of activity signature)” value (“UN: uncharacterized CNS activity” below) is “+++ (25% ≤ +++ <50%)”.
In the case of `Cc1cccc2c1[C@H](N)[C@@H](C)OC2.Cl` [Example 83], the minimal effective dose was 3 to 10 mg/kg, the “AD: ADHD” value is “+ (LOQ ≤ + <5%)”, the “AG: analgesic” value is listed as “++ (5% ≤ ++ <25%)” and the “AX: anxiolytic” value is on record as “++ (5% ≤ ++ <25%)”. The “CE: cognitive enhancer” value is reported as “++ (5% ≤ ++ <25%)”, the “DP: anti-depressant” value is “+ (LOQ ≤ + <5%)”, the “MS: mood stabilizer” value was “+ (LOQ ≤ + <5%)” and the “PS: anti-psychotic” value is “++ (5% ≤ ++ <25%)”. In addition, the “SD: sedative hypnotic” value is listed as “+ (LOQ ≤ + <5%)” and the “UN: uncharacterized CNS activity” value is reported as “++++ (50% ≤ ++++)”.
`COc1ccc2c(c1)[C@H](N)[C@H](C)OC2.Cl` [Example 84]: the minimal effective dose lay within 3 to 10 mg/kg, the “AD: ADHD” value is listed as “+ (LOQ ≤ + <5%)”, the “AG: analgesic” value is listed as “++ (5% ≤ ++ <25%)” and the “AX: anxiolytic” value is “++++ (50% ≤ ++++)”. In addition, the “CE: cognitive enhancer” value is “++ (5% ≤ ++ <25%)”, the “DP: anti-depressant” value is listed as “++ (5% ≤ ++ <25%)”, the “MS: mood stabilizer” value is “+ (LOQ ≤ + <5%)” and the “PS: anti-psychotic” value is listed as “++ (5% ≤ ++ <25%)”. Moreover, the “SD: sedative hypnotic” value is listed as “+ (LOQ ≤ + <5%)” and the “UN: uncharacterized CNS activity” value is “+++ (25% ≤ +++ <50%)”.
For the compound `COc1ccc2c(c1)[C@H](N)[C@@H](C)OC2.Cl` [Example 85], the minimal effective dose lay in the range of 3 to 10 mg/kg, the “AD: ADHD” value is “+ (LOQ ≤ + <5%)”, the “AG: analgesic” value was “+++ (25% ≤ +++ <50%)” and the “AX: anxiolytic” value was “++ (5% ≤ ++ <25%)”. Moreover, the “CE: cognitive enhancer” value is “++ (5% ≤ ++ <25%)”, the “DP: anti-depressant” value was “++ (5% ≤ ++ <25%)”, the “MS: mood stabilizer” value was “+ (LOQ ≤ + <5%)” and the “PS: anti-psychotic” value is listed as “+ (LOQ ≤ + <5%)”. The “SD: sedative hypnotic” value was “+ (LOQ ≤ + <5%)” and the “UN: uncharacterized CNS activity” value is listed as “+++ (25% ≤ +++ <50%)”.
Consider `C[C@@H]1OCc2c(Cl)cccc2[C@@H]1N.Cl` [Example 86], for which the minimal effective dose fell in the range of 10 to 30 mg/kg, the “AD: ADHD” value is reported as “+ (LOQ ≤ + <5%)”, the “AG: analgesic” value is given as “++ (5% ≤ ++ <25%)” and the “AX: anxiolytic” value was “++ (5% ≤ ++ <25%)”. The “CE: cognitive enhancer” value is “++ (5% ≤ ++ <25%)”, the “DP: anti-depressant” value is on record as “+ (LOQ ≤ + <5%)”, the “MS: mood stabilizer” value is reported as “+ (LOQ ≤ + <5%)” and the “PS: anti-psychotic” value is given as “++ (5% ≤ ++ <25%)”. For the same compound, the “SD: sedative hypnotic” value is recorded as “+ (LOQ ≤ + <5%)” and the “UN: uncharacterized CNS activity” value is “+++ (25% ≤ +++ <50%)”.
Regarding `C[C@H]1OCc2c(Cl)cccc2[C@@H]1N.Cl` [Example 87], the minimal effective dose was in the range of 3 to 10 mg/kg, the “AD: ADHD” value is “+ (LOQ ≤ + <5%)”, the “AG: analgesic” value is “++ (5% ≤ ++ <25%)” and the “AX: anxiolytic” value is “++ (5% ≤ ++ <25%)”. The “CE: cognitive enhancer” value is on record as “++ (5% ≤ ++ <25%)”, the “DP: anti-depressant” value is recorded as “++ (5% ≤ ++ <25%)”, the “MS: mood stabilizer” value is listed as “+ (LOQ ≤ + <5%)” and the “PS: anti-psychotic” value is on record as “++ (5% ≤ ++ <25%)”. The “SD: sedative hypnotic” value is “++ (5% ≤ ++ <25%)” and the “UN: uncharacterized CNS activity” value is listed as “+++ (25% ≤ +++ <50%)”.
`C[C@@H]1OCc2ccc(F)cc2[C@@H]1N.Cl` [Example 88]: the minimal effective dose was less than 3 mg/kg, the “AD: ADHD” value is “+ (LOQ ≤ + <5%)”, the “AG: analgesic” value was “++ (5% ≤ ++ <25%)” and the “AX: anxiolytic” value is recorded as “+++ (25% ≤ +++ <50%)”. The “CE: cognitive enhancer” value is “++ (5% ≤ ++ <25%)”, the “DP: anti-depressant” value is given as “+ (LOQ ≤ + <5%)”, the “MS: mood stabilizer” value is on record as “+ (LOQ ≤ + <5%)” and the “PS: anti-psychotic” value was “++ (5% ≤ ++ <25%)”. Moreover, the “SD: sedative hypnotic” value is on record as “++ (5% ≤ ++ <25%)” and the “UN: uncharacterized CNS activity” value is given as “+++ (25% ≤ +++ <50%)”.
As for `C[C@H]1OCc2ccc(F)cc2[C@@H]1N.Cl` [Example 89], the minimal effective dose is less than 3 mg/kg, the “AD: ADHD” value was “+ (LOQ ≤ + <5%)”, the “AG: analgesic” value is “++ (5% ≤ ++ <25%)” and the “AX: anxiolytic” value is recorded as “++ (5% ≤ ++ <25%)”. Moreover, the “CE: cognitive enhancer” value was “++ (5% ≤ ++ <25%)”, the “DP: anti-depressant” value is “+ (LOQ ≤ + <5%)”, the “MS: mood stabilizer” value is on record as “+ (LOQ ≤ + <5%)” and the “PS: anti-psychotic” value is listed as “++ (5% ≤ ++ <25%)”. Besides, the “SD: sedative hypnotic” value is “++ (5% ≤ ++ <25%)” and the “UN: uncharacterized CNS activity” value is listed as “++++ (50% ≤ ++++)”.
Regarding `C[C@H]1OCc2ccc(Cl)c(Cl)c2[C@@H]1N.Cl` [Example 92], the minimal effective dose lay in the range of 10 to 30 mg/kg, the “AD: ADHD” value is listed as “+ (LOQ ≤ + <5%)”, the “AG: analgesic” value is reported as “+ (LOQ ≤ + <5%)” and the “AX: anxiolytic” value is recorded as “++ (5% ≤ ++ <25%)”. Further, the “CE: cognitive enhancer” value is on record as “+ (LOQ ≤ + <5%)”, the “DP: anti-depressant” value is “++ (5% ≤ ++ <25%)”, the “MS: mood stabilizer” value is listed as “+ (LOQ ≤ + <5%)” and the “PS: anti-psychotic” value is “+ (LOQ ≤ + <5%)”. Moreover, the “SD: sedative hypnotic” value was “+ (LOQ ≤ + <5%)” and the “UN: uncharacterized CNS activity” value is listed as “++++ (50% ≤ ++++)”.
In the case of `C[C@@H]1OCc2cc(Cl)ccc2[C@@H]1N.Cl` [Example 93], the minimal effective dose was 10 to 30 mg/kg, the “AD: ADHD” value is listed as “+ (LOQ ≤ + <5%)”, the “AG: analgesic” value is “++ (5% ≤ ++ <25%)” and the “AX: anxiolytic” value is given as “+++ (25% ≤ +++ <50%)”. Further, the “CE: cognitive enhancer” value was “+ (LOQ ≤ + <5%)”, the “DP: anti-depressant” value was “++ (5% ≤ ++ <25%)”, the “MS: mood stabilizer” value is on record as “+ (LOQ ≤ + <5%)” and the “PS: anti-psychotic” value is given as “++ (5% ≤ ++ <25%)”. The “SD: sedative hypnotic” value is on record as “+ (LOQ ≤ + <5%)” and the “UN: uncharacterized CNS activity” value is given as “+ (LOQ ≤ + <5%)”.
Regarding `C[C@H]1OCc2cc(Cl)ccc2[C@@H]1N.Cl` [Example 94], the minimal effective dose lay in the range of 10 to 30 mg/kg, the “AD: ADHD” value is on record as “+ (LOQ ≤ + <5%)”, the “AG: analgesic” value was “++ (5% ≤ ++ <25%)” and the “AX: anxiolytic” value is “++ (5% ≤ ++ <25%)”. The “CE: cognitive enhancer” value is “+ (LOQ ≤ + <5%)”, the “DP: anti-depressant” value was “+ (LOQ ≤ + <5%)”, the “MS: mood stabilizer” value is given as “+ (LOQ ≤ + <5%)” and the “PS: anti-psychotic” value was “+ (LOQ ≤ + <5%)”. The “SD: sedative hypnotic” value is listed as “+ (LOQ ≤ + <5%)” and the “UN: uncharacterized CNS activity” value is “++ (5% ≤ ++ <25%)”.
Turning to `Cc1ccc2c(c1)CO[C@@H](C)[C@H]2N.Cl` [Example 95], the minimal effective dose is less than 3 mg/kg, the “AD: ADHD” value is reported as “+ (LOQ ≤ + <5%)”, the “AG: analgesic” value was “++ (5% ≤ ++ <25%)” and the “AX: anxiolytic” value is given as “++ (5% ≤ ++ <25%)”. Besides, the “CE: cognitive enhancer” value was “++ (5% ≤ ++ <25%)”, the “DP: anti-depressant” value is “++ (5% ≤ ++ <25%)”, the “MS: mood stabilizer” value is “+ (LOQ ≤ + <5%)” and the “PS: anti-psychotic” value was “+++ (25% ≤ +++ <50%)”. The “SD: sedative hypnotic” value is on record as “+ (LOQ ≤ + <5%)” and the “UN: uncharacterized CNS activity” value is “+++ (25% ≤ +++ <50%)”.
Regarding `Cc1ccc2c(c1)CO[C@H](C)[C@H]2N.Cl` [Example 96], the minimal effective dose is less than 3 mg/kg, the “AD: ADHD” value was “+ (LOQ ≤ + <5%)”, the “AG: analgesic” value is recorded as “++ (5% ≤ ++ <25%)” and the “AX: anxiolytic” value was “+++ (25% ≤ +++ <50%)”. The “CE: cognitive enhancer” value is listed as “++ (5% ≤ ++ <25%)”, the “DP: anti-depressant” value is listed as “++ (5% ≤ ++ <25%)”, the “MS: mood stabilizer” value is “+ (LOQ ≤ + <5%)” and the “PS: anti-psychotic” value is reported as “++ (5% ≤ ++ <25%)”. Also, the “SD: sedative hypnotic” value was “+ (LOQ ≤ + <5%)” and the “UN: uncharacterized CNS activity” value is “+++ (25% ≤ +++ <50%)”.
